Test results from US10281476B2, “Methods to identify modulators of RyR calcium channels” (REGENTS OF THE UNIVERSITY OF MINNESOTA, priority 2013, dated 2019).
Values belong to the molecule of their own block, whether it stands above or below them. Where a SMILES comes first, the peptide text is derived from it. The star is where a group is joined. 5FAM = O=C1OC2(c3ccc(O)cc3Oc3cc(O)ccc32)c2ccc(C(=O)*)cc21

Columns and labels:
RyR = assay: Pilot FLT-FRET screen of NIH Clinical Collection 1 with D-FKBP and A-CaM near their Kd; type: binding; conditions: preliminary screen
From the text: The optimal concentration of A-CaM may vary from sarcoplasmic reticulum to cell samples, but using a concentration of A-CaM that is at or near its Kd will allow detection of enhanced CaM binding by FRET assays. Compounds that modulate CaM binding are expected to also affect RyR channel function, which can optionally be determined in secondary functional assays. […] A pilot screen of NIH Clinical Collection 1 used donor labeled FKBP and acceptor labeled CaM near their Kd.
Using the method illustrated in FIGS. 3 and 4, a preliminary screen of NIH Clinical Collection 1 (NCC1, 446 compounds) was conducted. The concentrations of A-CaM and D-FKBP were near their Kd. […] In FIG. 36, we represented the effect of compounds on FRET as E(compound)/E(control) (E/E0). Values outside the 3SD threshold (dotted line) are considered hits. Increased FRET (E/E0>1) indicates increased FKBP and/or CaM binding; decreased FRET (E/E0<1) indicates decreased FKBP and/or CaM binding.

RyR2 [1] = molecular target: T1, RyR2 (Rattus norvegicus, UniProt B0LPN4); assay: Steady-state F-DPc10 binding at the Z-line of saponin-permeabilized myocytes (confocal); design: endogenous in cells; host or cells: saponin-permeabilized adult rat ventricular myocytes; conditions: in-cell binding isotherm, [Ca2+]i 50 nmol/L
Description: Rat ventricular myocytes were isolated and permeabilized as previously described (Li et al., Circ Res, 2002; 90:309-316). All procedures were performed according to the Guiding Principles in the Care and Use of the Animals and were approved by the Council of American Physiological Society. DPc10, FKBP12.6, and CaM were labeled at specific sites with small fluorescence probes, similar to our previous studies (Guo et al., Circ Res, 2010; 106:1743-1752; Cornea et al., PNAS USA, 2009; 106:6128-6133; Guo et al., Biophys J, 2011; 101:2170-2177).
Confocal images was measured using a Biorad RADIANCE2100™ laser scanning confocal microscope equipped with an Argon ion laser, Green HeNe laser and with a Nikon Fluo x40 oil lens. FRET (fluorescence resonance energy transfer) experiments between CaM and DPc10, and FKBP12.6 and DPc10 were performed using an Olympus FV1000 confocal microscope. All experiments were done at room temperature.
Myocytes were exposed to […] F-DPc10, with intracellular [Ca^2+] ([Ca^2+]i) set at 50 nmol/L. F-DPc10 fluorescence is highest at the Z-lines, where RyR2 is concentrated, forming a typical cross-striated pattern. The difference between fluorescence intensity at the Z-line (Fz) and M-line (FM) is taken to represent [F-DPc10] specifically bound at the myocyte Z-line. We calibrated the bound [F-DPc10] in permeabilized myocytes using the linear relationship between F-DPc10 fluorescence and bath [F-DPc10] (FIG. 7B). […] To further test whether this Z-line-associated F-DPc10 represents RyR2-bound F-DPc10, we measured FRET between FKBP12.6 (known to specifically bind to RyR2 with subnanomolar affinity) (Guo et al., Circ Res, 2010; 106:1743-1752) and F-DPc10. […] Donor (AF568-FKBP12.6) fluorescence at the Z-line was quenched by HF647-DPc10, but the M-line signal was not (FIG. 9B). […]
Target sequence in this assay (B0LPN4 whole entry): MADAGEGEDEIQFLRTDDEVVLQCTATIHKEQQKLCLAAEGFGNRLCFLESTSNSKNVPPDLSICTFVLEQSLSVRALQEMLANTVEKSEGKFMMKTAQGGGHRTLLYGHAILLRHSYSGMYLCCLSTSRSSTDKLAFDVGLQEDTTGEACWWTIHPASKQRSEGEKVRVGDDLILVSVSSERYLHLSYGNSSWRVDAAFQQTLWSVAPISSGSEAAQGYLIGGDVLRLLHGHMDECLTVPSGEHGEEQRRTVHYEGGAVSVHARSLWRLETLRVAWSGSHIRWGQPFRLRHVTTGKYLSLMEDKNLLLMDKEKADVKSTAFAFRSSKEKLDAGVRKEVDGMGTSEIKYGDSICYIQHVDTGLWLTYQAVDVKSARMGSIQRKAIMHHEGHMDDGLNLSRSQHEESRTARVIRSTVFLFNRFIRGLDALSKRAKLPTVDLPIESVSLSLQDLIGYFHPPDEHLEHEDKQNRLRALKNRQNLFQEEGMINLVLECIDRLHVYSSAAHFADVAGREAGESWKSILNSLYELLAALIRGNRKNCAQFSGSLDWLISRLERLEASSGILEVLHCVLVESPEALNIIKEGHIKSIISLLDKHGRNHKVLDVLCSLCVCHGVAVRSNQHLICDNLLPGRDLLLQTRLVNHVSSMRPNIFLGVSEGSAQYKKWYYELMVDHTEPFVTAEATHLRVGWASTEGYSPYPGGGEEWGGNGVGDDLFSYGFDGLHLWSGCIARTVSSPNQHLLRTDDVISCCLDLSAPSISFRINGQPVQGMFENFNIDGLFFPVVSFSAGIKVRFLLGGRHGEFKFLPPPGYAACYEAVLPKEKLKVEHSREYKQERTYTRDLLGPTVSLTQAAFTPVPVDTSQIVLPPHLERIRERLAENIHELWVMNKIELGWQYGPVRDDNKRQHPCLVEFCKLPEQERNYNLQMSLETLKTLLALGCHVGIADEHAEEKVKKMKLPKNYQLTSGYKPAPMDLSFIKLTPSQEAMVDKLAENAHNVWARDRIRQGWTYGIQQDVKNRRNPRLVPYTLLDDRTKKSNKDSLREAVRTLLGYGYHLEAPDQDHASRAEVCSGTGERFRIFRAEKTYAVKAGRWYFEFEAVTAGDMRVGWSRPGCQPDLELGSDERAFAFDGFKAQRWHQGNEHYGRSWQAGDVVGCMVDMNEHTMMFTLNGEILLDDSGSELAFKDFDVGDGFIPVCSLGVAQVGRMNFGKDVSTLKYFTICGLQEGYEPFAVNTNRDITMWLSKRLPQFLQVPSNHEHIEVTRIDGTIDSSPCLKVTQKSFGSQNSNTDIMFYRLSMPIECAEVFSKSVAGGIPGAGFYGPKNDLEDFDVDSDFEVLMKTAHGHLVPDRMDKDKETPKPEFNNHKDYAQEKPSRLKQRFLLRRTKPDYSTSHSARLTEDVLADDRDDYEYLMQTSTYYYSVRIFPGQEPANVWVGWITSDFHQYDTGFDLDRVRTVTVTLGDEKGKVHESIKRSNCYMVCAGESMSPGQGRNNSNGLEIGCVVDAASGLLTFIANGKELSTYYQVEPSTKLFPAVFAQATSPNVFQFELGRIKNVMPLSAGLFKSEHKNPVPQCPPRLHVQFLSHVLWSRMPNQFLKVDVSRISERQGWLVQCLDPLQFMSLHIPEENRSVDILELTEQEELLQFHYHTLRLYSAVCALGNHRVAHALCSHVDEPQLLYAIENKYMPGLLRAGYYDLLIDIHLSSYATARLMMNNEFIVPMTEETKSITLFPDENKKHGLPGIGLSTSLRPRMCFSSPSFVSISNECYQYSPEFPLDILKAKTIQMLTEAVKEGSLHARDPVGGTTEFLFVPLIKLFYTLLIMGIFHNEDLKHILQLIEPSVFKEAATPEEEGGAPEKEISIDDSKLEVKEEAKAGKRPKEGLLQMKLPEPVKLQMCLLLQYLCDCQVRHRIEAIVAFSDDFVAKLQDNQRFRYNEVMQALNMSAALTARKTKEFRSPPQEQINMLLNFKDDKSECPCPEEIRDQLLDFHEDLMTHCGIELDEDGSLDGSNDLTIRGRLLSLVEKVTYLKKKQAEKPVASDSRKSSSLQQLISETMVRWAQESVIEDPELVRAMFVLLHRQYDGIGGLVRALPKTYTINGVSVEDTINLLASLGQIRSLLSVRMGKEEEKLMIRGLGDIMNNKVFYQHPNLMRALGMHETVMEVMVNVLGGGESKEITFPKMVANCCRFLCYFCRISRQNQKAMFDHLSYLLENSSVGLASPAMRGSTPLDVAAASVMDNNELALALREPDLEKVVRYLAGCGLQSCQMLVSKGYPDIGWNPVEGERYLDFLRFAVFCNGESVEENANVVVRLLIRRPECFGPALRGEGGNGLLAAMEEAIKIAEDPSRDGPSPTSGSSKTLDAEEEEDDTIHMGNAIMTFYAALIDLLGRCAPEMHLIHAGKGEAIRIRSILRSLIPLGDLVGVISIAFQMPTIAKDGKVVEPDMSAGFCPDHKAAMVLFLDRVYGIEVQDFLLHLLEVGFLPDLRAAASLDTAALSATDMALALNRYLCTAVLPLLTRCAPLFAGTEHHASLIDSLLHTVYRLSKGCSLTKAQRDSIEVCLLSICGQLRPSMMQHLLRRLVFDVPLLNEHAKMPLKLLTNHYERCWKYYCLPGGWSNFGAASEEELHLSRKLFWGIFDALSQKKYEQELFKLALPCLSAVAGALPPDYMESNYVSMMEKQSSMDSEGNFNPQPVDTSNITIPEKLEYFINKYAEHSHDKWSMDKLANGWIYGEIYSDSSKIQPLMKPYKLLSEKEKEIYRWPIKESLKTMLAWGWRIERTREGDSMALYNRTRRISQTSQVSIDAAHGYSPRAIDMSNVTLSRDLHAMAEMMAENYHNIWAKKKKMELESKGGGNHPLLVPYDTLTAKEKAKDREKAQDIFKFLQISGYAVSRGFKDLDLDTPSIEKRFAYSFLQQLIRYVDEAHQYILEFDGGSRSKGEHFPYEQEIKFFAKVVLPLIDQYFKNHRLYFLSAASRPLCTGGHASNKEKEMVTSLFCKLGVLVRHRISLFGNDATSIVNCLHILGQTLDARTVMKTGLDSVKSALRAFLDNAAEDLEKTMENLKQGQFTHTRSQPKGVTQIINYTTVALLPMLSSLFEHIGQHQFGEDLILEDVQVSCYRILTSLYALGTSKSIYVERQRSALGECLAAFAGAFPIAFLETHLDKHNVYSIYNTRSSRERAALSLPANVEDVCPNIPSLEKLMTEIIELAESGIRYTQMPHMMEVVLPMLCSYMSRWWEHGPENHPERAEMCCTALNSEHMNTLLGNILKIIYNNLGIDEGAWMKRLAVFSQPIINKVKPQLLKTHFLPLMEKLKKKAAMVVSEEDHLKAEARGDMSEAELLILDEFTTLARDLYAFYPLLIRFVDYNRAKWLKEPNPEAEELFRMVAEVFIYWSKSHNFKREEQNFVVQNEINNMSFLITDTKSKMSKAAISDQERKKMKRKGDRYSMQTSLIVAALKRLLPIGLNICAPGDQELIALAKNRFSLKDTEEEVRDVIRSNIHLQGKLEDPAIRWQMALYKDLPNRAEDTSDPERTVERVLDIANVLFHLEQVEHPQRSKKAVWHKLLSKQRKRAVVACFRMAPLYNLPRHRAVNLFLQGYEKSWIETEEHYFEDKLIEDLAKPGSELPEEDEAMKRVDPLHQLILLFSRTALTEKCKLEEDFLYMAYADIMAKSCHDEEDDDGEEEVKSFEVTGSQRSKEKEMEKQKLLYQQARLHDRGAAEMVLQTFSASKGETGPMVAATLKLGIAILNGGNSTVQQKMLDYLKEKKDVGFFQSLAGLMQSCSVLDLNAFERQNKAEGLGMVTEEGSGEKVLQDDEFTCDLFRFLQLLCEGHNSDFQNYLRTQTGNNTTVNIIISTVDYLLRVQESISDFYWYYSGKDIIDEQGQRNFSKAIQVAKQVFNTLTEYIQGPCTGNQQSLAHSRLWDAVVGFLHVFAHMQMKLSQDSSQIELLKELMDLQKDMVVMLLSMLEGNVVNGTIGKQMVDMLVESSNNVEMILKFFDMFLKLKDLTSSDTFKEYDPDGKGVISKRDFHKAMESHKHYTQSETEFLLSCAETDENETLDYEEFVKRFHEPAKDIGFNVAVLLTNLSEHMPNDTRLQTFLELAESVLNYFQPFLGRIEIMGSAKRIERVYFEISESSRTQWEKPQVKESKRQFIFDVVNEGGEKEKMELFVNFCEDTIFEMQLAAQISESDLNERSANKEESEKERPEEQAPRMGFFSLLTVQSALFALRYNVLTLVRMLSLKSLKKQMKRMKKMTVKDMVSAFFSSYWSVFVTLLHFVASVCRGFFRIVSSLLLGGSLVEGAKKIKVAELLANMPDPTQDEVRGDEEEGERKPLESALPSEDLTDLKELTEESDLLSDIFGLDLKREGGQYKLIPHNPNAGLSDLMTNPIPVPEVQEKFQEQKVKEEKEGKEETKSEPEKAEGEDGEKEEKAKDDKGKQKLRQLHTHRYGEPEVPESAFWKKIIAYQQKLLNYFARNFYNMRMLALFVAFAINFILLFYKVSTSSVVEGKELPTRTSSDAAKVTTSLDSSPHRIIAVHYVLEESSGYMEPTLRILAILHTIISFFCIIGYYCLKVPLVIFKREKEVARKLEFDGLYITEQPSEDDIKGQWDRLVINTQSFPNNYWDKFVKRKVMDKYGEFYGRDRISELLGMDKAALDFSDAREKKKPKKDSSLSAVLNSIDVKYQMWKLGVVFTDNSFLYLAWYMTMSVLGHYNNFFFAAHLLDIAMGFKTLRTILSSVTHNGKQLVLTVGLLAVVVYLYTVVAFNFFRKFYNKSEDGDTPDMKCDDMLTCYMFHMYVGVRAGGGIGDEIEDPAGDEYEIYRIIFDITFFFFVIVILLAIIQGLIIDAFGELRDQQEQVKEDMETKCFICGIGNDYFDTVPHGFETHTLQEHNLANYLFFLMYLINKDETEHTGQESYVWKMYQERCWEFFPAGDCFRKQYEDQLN

RyR2 [2] = molecular target: T1, RyR2; assay: F-DPc10 wash-in and washout kinetics at the myocyte Z-line; type: binding; design: endogenous in cells; host or cells: saponin-permeabilized adult rat ventricular myocytes
Description: To characterize DPc10-binding kinetics at Z-lines, we performed F-DPc10 wash-in (500 nmol/L) and washout experiments in permeabilized myocytes (FIG. 10A). Association (τwash-in=79.0±3.2 minutes) and dissociation (τwashout=149.8±4.4 minutes) were very slow compared with similar FKBP12.6 measurements (Guo et al., Circ Res, 2010; 106:1743-1752). From the wash-in/washout measurements, we calculated the association and dissociation rates constants, kon and koff, respectively, according to the following equation: kwash-in=[F-DPc10]kon+koff where kwashout≈koff and k=1/τ (s^−1). Accordingly, kon=202±20 (L mol^−1 s^−1) and koff=0.11±0.01 (10^−3 s^−1). […] We repeated this kinetic analysis using FRET between FKBP12.6 and DPc10, thus assessing the RyR2-specific DPc10 binding (FIG. 11A AND 11B). […] Based on these kinetic and affinity analyses, we infer that most of the Z-line-specific DPc10 binding is to RyR2. This is also consistent with Bmax, which would imply ≈1 DPc10 per RyR2 monomer.
We were intrigued by the slow kwash-in and conducted measurements to further understand the basis of this slow association. We tested the hypothesis that at resting [Ca^2+]i, DPc10 access to its RyR2 binding site is sterically hindered. If the N-terminal and central domains are tightly zipped to each other, then this interaction may occlude the DPc10-binding site on the RyR2, thus limiting the kon for DPc10. Alternatively, a limiting factor may be the rate at which DPc10 adopts a conformation that can bind to RyR2. To discern between these mechanisms, we determined the effect of [F-DPc10] on τwash-in. If the small fraction of DPc10 in the right conformation limits binding rate, then τwash-in should be faster at higher [F-DPc10], according to Equation. […] Instead, a 10-fold increase in [F-DPc10] had no significant effect on the τwash-in, although it did increase Bmax (FIG. 10B). The same was seen when using FKBP12.6-DPc10 FRET to assess τwash-in with 0.5 vs 5 μmol/L HF647-DPc10 (FIG. 12A AND 12B).
In our working model, under resting conditions, the RyR2 closed state may be stabilized by the interaction between the N-terminal and central domain in the zipped state. We hypothesized that conditions that promote RyR2 opening might enhance the rate of unzipping and accelerate τwash-in for F-DPc10. To test this, we first monitored F-DPc10 wash-in at elevated Ca^2+ (500 nmol/L). However, the 13% faster mean τwash-in was not significant (FIG. 13A). […] Thus, we preincubated myocytes with ryanodine (100 μmol/L) plus caffeine ([…]), which are known to favor long RyR2 openings and were reported to cause RyR2 domain unzipping in HEK293 cells (Liu et al., J Cell Sci, 2010; 123: 1775-1784). Ryanodine+caffeine produced a 21% faster τwash-in (P=0.002; FIG. 13B). However, the most significant effect was seen after presaturating RyR2 with NF-DPc10 (and then NF-DPc10 washout with F-DPc10 present; FIG. 13A). […] Assuming that koff of NF-DPc10 is the same as for F-DPc10 and using Equation, the kon is increased by 3.2-fold by unzipping as a result of prebinding of NF-DPc10 to the RyR2. Our working hypothesis is that the RyR2 open state may increase the probability of an RyR2 shifting to the unzipped state and may allow faster F-DPc10 wash-in. It also seems that the RyR2 open state (favored by caffeine-ryanodine) differs from the unzipped state (bound with DPc10).
Both FKBP12.6 and CaM bind to the RyR2 and can reduce channel opening, which might alter DPc10 binding. […] Neither CaM nor FKBP12.6 pretreatment altered M-line F-DPc10 fluorescence (FIG. 15). […] We infer that CaM stabilizes the domain interaction between N-terminal and central domains in the zipped state and thereby may reduce DPc10 access to its binding site. To test for direct CaM-DPc10 interaction, we performed control FRET measurements between donor-labeled CaM and acceptor-labeled DPc10 in solution in the absence of RyR. The maximal FRET efficiency (<1%) ruled out direct CaM-DPc10 interaction. […]
Target sequence in this assay (B0LPN4 whole entry): as above

RyR2 [3] = molecular target: T1, RyR2; assay: HF647-DPc10 wash-in kinetics by FRET from F-FKBP (donor quench) in permeabilized myocytes; type: binding; design: These fluorescent proteins were added to saponin-permeabilized myocytes with or without pre-equilibration with saturating DPc10 concentration; endogenous in cells; host or cells: saponin-permeabilized rat ventricular myocytes; conditions: myocytes
Description: The FRET pair we used in this consisted of ALEXA FLUOR™ 488 (donor) covalently attached to FKBP12.6 (F-FKBP) and HiLyte Fluor™647 (acceptor) covalently attached to DPc10 (F-DPc10).^8 To detect F-DPc10 specifically bound to RyR2, we measured donor fluorescence intensities through a 500-530 nm bandpass filter before and after equilibration with acceptor (donor quenching method). The FRET efficiency (E) was calculated according to: E=1-FDA/FD, Where FD and FDA are the fluorescence intensities of the donor-only and donor-plus-acceptor samples, respectively (Oda et al., Circ Res. 2013;112:487-497). Statistics
Next we tested whether RyR2 oxidation would increase HF647-DPc10 access. Here, we used FRET between F-FKBP as a donor and HF647-DPc10 as an acceptor, to detect DPc10 that specifically binds at RyR2 (Oda et al., Circ Res. 2013; 112:487-497).
Target sequence in this assay (B0LPN4 whole entry): as above
Target sequence in this assay (P68106 with tags, fused parts or gaps T15C/C23A/C77I partner): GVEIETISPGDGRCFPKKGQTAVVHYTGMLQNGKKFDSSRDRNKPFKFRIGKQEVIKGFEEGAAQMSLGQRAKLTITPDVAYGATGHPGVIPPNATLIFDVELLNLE

[4] = calculated from wash-in/washout

- effect on FRET, E(compound)/E(control); hit = outside the 3SD threshold (RyR): hits
SMILES: O=C1N(c2ccccc2)c2ccccc2C1(Cc1ccncc1)Cc1ccncc1 [Linopirdine]

- effect on FRET, E(compound)/E(control); hit = outside the 3SD threshold (RyR): among the hits
- effect on FRET, E(compound)/E(control); hit = outside the 3SD threshold (RyR; listed as FK506): reducing FRET
SMILES: C=CC[C@@H]1/C=C(\C)C[C@H](C)C[C@H](OC)[C@H]2O[C@@](O)(C(=O)C(=O)N3CCCC[C@H]3C(=O)O[C@H](/C(C)=C/[C@@H]3CC[C@@H](O)[C@H](OC)C3)[C@H](C)[C@@H](O)CC1=O)[C@H](C)C[C@@H]2OC [Tacrolimus]

- effect on FRET, E(compound)/E(control); hit = outside the 3SD threshold (RyR): hits
SMILES: Nc1nc(Cl)nc2c1ncn2[C@H]1C[C@H](O)[C@@H](CO)O1 [Cladribine]

The remaining lines, values behind:

SMILES: NC(=O)c1cccnc1 [Nicotinamide]
- effect on FRET, E(compound)/E(control); hit = outside the 3SD threshold (RyR): hits

SMILES: CC[C@H](C)[C@H](NC(=O)CNC(=O)[C@H](Cc1ccc(O)cc1)NC(=O)[C@@H](NC(=O)[C@H](CCCNC(=N)N)NC(=O)[C@H](CC(=O)O)NC(=O)[C@H](CC(C)C)NC(=O)[C@H](Cc1ccccc1)NC(=O)[C@H](CC(C)C)NC(=O)[C@@H](NC(=O)[C@H](CCSC)NC(=O)[C@H](C)NC(=O)[C@H](C)NC(=O)[C@H](CCCCN)NC(=O)[C@H](Cc1c[nH]cn1)NC(=O)[C@H](CC(=O)O)NC(=O)[C@@H]1CCCN1C(=O)[C@H](CS)NC(=O)[C@H](Cc1ccccc1)NC(=O)CNC(=O)c1ccc2c(c1)C(=O)OC21c2ccc(O)cc2Oc2cc(O)ccc21)C(C)C)C(C)C)C(=O)N[C@@H](CCC(=O)O)C(=O)N[C@H](C(=O)N[C@@H](CCC(N)=O)C(=O)N[C@@H](CC(=O)O)C(=O)N[C@@H](Cc1ccccc1)C(=O)N[C@@H](CC(C)C)C(=O)N[C@@H](CC(C)C)C(=O)N[C@@H](Cc1c[nH]cn1)C(=O)N[C@@H](CC(C)C)C(=O)N[C@@H](CC(C)C)C(=O)N[C@@H](CCC(=O)O)C(=O)N[C@H](C(=O)NCC(=O)N[C@@H](Cc1ccccc1)C(=O)N[C@@H](CC(C)C)C(=O)N1CCC[C@H]1C(=O)O)C(C)C)C(C)C [F-DPc10] (5FAM-GFCPDHKAAMVLFLDRVYGIEVQDFLLHLLEVGFLP-OH)
- maximal binding (Bmax), concentration of F-DPc10-binding sites (RyR2 [1]): 1.59±0.03 μmon
- association τwash-in (RyR2 [2]; F-DPc10 500 nmol/L): 79.0 ± 3.2 min
- dissociation τwashout (RyR2 [2]; F-DPc10 500 nmol/L): 149.8 ± 4.4 min
- koff (RyR2 [2]; [4]): 0.00011 ± 1e-05 s⁻¹
- kon (RyR2 [2]; [4]): 202 ± 20 M⁻¹ s⁻¹
- kon slower than that measured for FKBP12.6 (RyR2 [2]; similar conditions): ≈ 1800 fold
- τwash-in in controls (RyR2 [3]): ~80 min
